# According to article PMC5218480 (PLoS ONE, 2017):
# Tested on: MV-4-11 cells
# Assay: Gene expression microarray analysis (Affymetrix PrimeView) and GSEA
# Type: cell-based, human
# Set-up: RFU PODN (11730768_x_at) / Fold change /veh PODN (11730768_x_at) / RFU LINC00158 (11744669_a_at) / Fold change /veh LINC00158 (11744669_a_at) / RFU DUSP10 (11751237_a_at) / Fold change /veh DUSP10 (11751237_a_at) / RFU ID3 (11757404_x_at) / Fold change /veh ID3 (11757404_x_at) / RFU PLEKHG5 (11737974_s_at) / Fold change /veh PLEKHG5 (11737974_s_at) / RFU LRRC4B (11730491_at) / Fold change /veh LRRC4B (11730491_at) / RFU GIMAP4 (11747438_a_at) / Fold change /veh GIMAP4 (11747438_a_at) / RFU KRT8 (11758183_x_at) / Fold change /veh KRT8 (11758183_x_at) / RFU CNN1 (11734310_a_at) / Fold change /veh CNN1 (11734310_a_at) / RFU VPS37D (11726825_at) / Fold change /veh VPS37D (11726825_at) / RFU C10orf10 (11716522_x_at) / Fold change /veh C10orf10 (11716522_x_at) / RFU KIR2DL2 /// KIR2DL4 /// KIR2DL5A /// KIR2DL5B /// KIR2DS1 /// KIR2DS2 /// KIR2DS3 /// KIR2DS4 /// KIR3DL3 /// KIR3DL3 /// KIR3DS1 (11738374_at) / Fold change /veh KIR2DL2 /// KIR2DL4 /// KIR2DL5A /// KIR2DL5B /// KIR2DS1 /// KIR2DS2 /// KIR2DS3 /// KIR2DS4 /// KIR3DL3 /// KIR3DL3 /// KIR3DS1 (11738374_at) / RFU C1QL1 (11718748_at) / Fold change /veh C1QL1 (11718748_at) / RFU TMPRSS4 (11747572_a_at) / Fold change /veh TMPRSS4 (11747572_a_at) / RFU HAMP (11756126_x_at) / Fold change /veh HAMP (11756126_x_at) / RFU RNFT2 (11725882_a_at) / Fold change /veh RNFT2 (11725882_a_at) / RFU NR4A2 (11747474_a_at) / Fold change /veh NR4A2 (11747474_a_at) / RFU ABCC12 (11746883_a_at) / Fold change /veh ABCC12 (11746883_a_at) / RFU TMEM136 (11760407_x_at) / Fold change /veh TMEM136 (11760407_x_at) / RFU CLDN22 /// WWC2 (11732394_at) / Fold change /veh CLDN22 /// WWC2 (11732394_at) / RFU HLA-DPB1 (11760878_x_at) / Fold change /veh HLA-DPB1 (11760878_x_at) / RFU SPINT1 (11716480_a_at) / Fold change /veh SPINT1 (11716480_a_at) / RFU GAP43 (11754022_s_at) / Fold change /veh GAP43 (11754022_s_at) / RFU A4GNT (11735810_at) / Fold change /veh A4GNT (11735810_at) / RFU PRB3 (11715151_x_at) / Fold change /veh PRB3 (11715151_x_at) / RFU TUBB4B (11761932_at) / Fold change /veh TUBB4B (11761932_at) / RFU CAPN14 (11732068_a_at) / Fold change /veh CAPN14 (11732068_a_at) / RFU TMCC2 (11721928_a_at) / Fold change /veh TMCC2 (11721928_a_at) / RFU IRGQ (11745062_a_at) / Fold change /veh IRGQ (11745062_a_at) / RFU FAM174B (11720279_a_at) / Fold change /veh FAM174B (11720279_a_at) / RFU TMPRSS4 (11748680_a_at) / Fold change /veh TMPRSS4 (11748680_a_at) / RFU FAM212B (11763350_a_at) / Fold change /veh FAM212B (11763350_a_at) / RFU PLEKHG5 (11743358_a_at) / Fold change /veh PLEKHG5 (11743358_a_at) / RFU ZSCAN30 (11745921_a_at) / Fold change /veh ZSCAN30 (11745921_a_at) / RFU CMKLR1 (11741424_a_at) / Fold change /veh CMKLR1 (11741424_a_at) / RFU LOC101060620 /// MAPK8IP1 (11723275_at) / Fold change /veh LOC101060620 /// MAPK8IP1 (11723275_at) / RFU SPTSSB (11747773_x_at) / Fold change /veh SPTSSB (11747773_x_at) / RFU PRSS12 (11739890_at) / Fold change /veh PRSS12 (11739890_at) / RFU BIN1 (11741810_x_at) / Fold change /veh BIN1 (11741810_x_at) / RFU WNT11 (11732464_a_at) / Fold change /veh WNT11 (11732464_a_at) / RFU C10orf10 (11716521_a_at) / Fold change /veh C10orf10 (11716521_a_at) / RFU C5orf56 (11738089_at) / Fold change /veh C5orf56 (11738089_at) / RFU CYB561 (11721691_x_at) / Fold change /veh CYB561 (11721691_x_at) / RFU ANKRD19P (11752326_a_at) / Fold change /veh ANKRD19P (11752326_a_at) / RFU OR2T12 /// OR2T33 /// OR2T8 (11738714_s_at) / Fold change /veh OR2T12 /// OR2T33 /// OR2T8 (11738714_s_at) / RFU VCAN (11748164_a_at) / Fold change /veh VCAN (11748164_a_at) / RFU JSRP1 (11732532_at) / Fold change /veh JSRP1 (11732532_at) / RFU KRTAP10-11 (11738290_x_at) / Fold change /veh KRTAP10-11 (11738290_x_at) / RFU MYO3A (11730013_a_at) / Fold change /veh MYO3A (11730013_a_at) / RFU EBF3 (11725865_a_at) / Fold change /veh EBF3 (11725865_a_at) / RFU CAMK2N1 (11719241_x_at) / Fold change /veh CAMK2N1 (11719241_x_at) / RFU C5orf56 (11738088_a_at) / Fold change /veh C5orf56 (11738088_a_at) / RFU OLFML3 (11715873_a_at) / Fold change /veh OLFML3 (11715873_a_at) / RFU LOC100653217 /// NTM (11731650_a_at) / Fold change /veh LOC100653217 /// NTM (11731650_a_at) / RFU MAPK11 (11762145_a_at) / Fold change /veh MAPK11 (11762145_a_at) / RFU FIZ1 (11724087_x_at) / Fold change /veh FIZ1 (11724087_x_at) / RFU OASL (11726364_x_at) / Fold change /veh OASL (11726364_x_at) / RFU SOX15 (11748057_x_at) / Fold change /veh SOX15 (11748057_x_at) / RFU CD79A (11719716_a_at) / Fold change /veh CD79A (11719716_a_at) / RFU HIST1H1D (11736915_at) / Fold change /veh HIST1H1D (11736915_at) / RFU CASKIN2 (11723855_a_at) / Fold change /veh CASKIN2 (11723855_a_at) / RFU LOC730098 (11760151_x_at) / Fold change /veh LOC730098 (11760151_x_at) / RFU OR4N2 (11742367_at) / Fold change /veh OR4N2 (11742367_at) / RFU PRRT2 (11749266_a_at) / Fold change /veh PRRT2 (11749266_a_at) / RFU SNX32 (11753110_a_at) / Fold change /veh SNX32 (11753110_a_at) / RFU CDHR5 (11726645_a_at) / Fold change /veh CDHR5 (11726645_a_at) / RFU RCAN1 (11760418_a_at) / Fold change /veh RCAN1 (11760418_a_at) / RFU FAM167A (11723789_a_at) / Fold change /veh FAM167A (11723789_a_at) / RFU FAM26E (11764081_at) / Fold change /veh FAM26E (11764081_at) / RFU ISYNA1 (11749810_s_at) / Fold change /veh ISYNA1 (11749810_s_at) / RFU ACY1 (11761880_at) / Fold change /veh ACY1 (11761880_at) / RFU 11764098_at / Fold change /veh 11764098_at / RFU SAMD14 (11745864_x_at) / Fold change /veh SAMD14 (11745864_x_at) / RFU NPB (11741838_a_at) / Fold change /veh NPB (11741838_a_at) / RFU TMPRSS6 (11731388_a_at) / Fold change /veh TMPRSS6 (11731388_a_at) / RFU KRTAP10-2 (11738614_at) / Fold change /veh KRTAP10-2 (11738614_at) / RFU ARHGAP8 /// PRR5-ARHGAP8 (11727945_x_at) / Fold change /veh ARHGAP8 /// PRR5-ARHGAP8 (11727945_x_at) / RFU KRTAP5-7 /// NADSYN1 (11734609_at) / Fold change /veh KRTAP5-7 /// NADSYN1 (11734609_at) / RFU RASL12 (11751679_a_at) / Fold change /veh RASL12 (11751679_a_at) / RFU CDKN2B (11736163_a_at) / Fold change /veh CDKN2B (11736163_a_at) / RFU PRF1 (11729649_at) / Fold change /veh PRF1 (11729649_at) / RFU, ZNF638 /// ZNF638-IT1 / Fold change vs veh, ZNF638 /// ZNF638-IT1 / RFU, PANK3 / Fold change vs veh, PANK3 / RFU, SH3YL1 / Fold change vs veh, SH3YL1 / RFU, ZEB2 / Fold change vs veh, ZEB2 / RFU, NRIP1 / Fold change vs veh, NRIP1 / RFU, PTTG1IP / Fold change vs veh, PTTG1IP / RFU, CAPN2 / Fold change vs veh, CAPN2 / RFU, MED14 / Fold change vs veh, MED14 / RFU, SNORA58 / Fold change vs veh, SNORA58 / RFU, C1orf63 / Fold change vs veh, C1orf63 / RFU, LRRFIP1 / Fold change vs veh, LRRFIP1 / RFU, NDUFAF7 / Fold change vs veh, NDUFAF7 / RFU, SLC12A2 / Fold change vs veh, SLC12A2 / RFU, IBTK / Fold change vs veh, IBTK / RFU, ESF1 / Fold change vs veh, ESF1 / Fold change vs veh, TMEM50B / RFU, TAOK1 / Fold change vs veh, TAOK1 / RFU, ACBD3 / Fold change vs veh, ACBD3 / RFU, TMA16 / Fold change vs veh, TMA16 / RFU, RWDD3 / Fold change vs veh, RWDD3 / RFU, BCAT1 / Fold change vs veh, BCAT1 / RFU, EDEM3 / Fold change vs veh, EDEM3 / RFU, TMEM33 / Fold change vs veh, TMEM33 / RFU, WDR75 / Fold change vs veh, WDR75 / RFU, AHCTF1 / Fold change vs veh, AHCTF1 / RFU, TFRC / Fold change vs veh, TFRC / RFU, ZDHHC17 / Fold change vs veh, ZDHHC17 / RFU, NOM1 / Fold change vs veh, NOM1 / RFU, ARL8B / Fold change vs veh, ARL8B / RFU, ZBTB11 / Fold change vs veh, ZBTB11 / RFU, TAMM41 / Fold change vs veh, TAMM41 / RFU, KIAA1704 /// LOC100996395 / Fold change vs veh, KIAA1704 /// LOC100996395 / RFU, ING1 / Fold change vs veh, ING1 / RFU, TRMT61B / Fold change vs veh, TRMT61B / RFU, FUBP3 / Fold change vs veh, FUBP3 / RFU, TP53 / Fold change vs veh, TP53 / RFU, TNKS2 / Fold change vs veh, TNKS2 / RFU, ZFP14 / Fold change vs veh, ZFP14 / RFU, ACTR2 / Fold change vs veh, ACTR2 / RFU, PPP3R1 / Fold change vs veh, PPP3R1 / RFU, PIK3R1 / Fold change vs veh, PIK3R1 / RFU, HNRNPA1 / Fold change vs veh, HNRNPA1 / RFU, RNF170 / Fold change vs veh, RNF170 / RFU, ZNF28 / Fold change vs veh, ZNF28 / RFU, RNGTT / Fold change vs veh, RNGTT / RFU, OGT / Fold change vs veh, OGT / RFU, BRD1 / Fold change vs veh, BRD1 / RFU, MARS / Fold change vs veh, MARS / RFU, ZNF655 / Fold change vs veh, ZNF655 / RFU, FAHD1 / Fold change vs veh, FAHD1 / RFU, BDP1 / Fold change vs veh, BDP1 / RFU, LRRCC1 / Fold change vs veh, LRRCC1 / RFU, ARID1A / Fold change vs veh, ARID1A / RFU, ZNF146 / Fold change vs veh, ZNF146 / RFU, ZNF330 / Fold change vs veh, ZNF330 / RFU, GPN3 / Fold change vs veh, GPN3 / RFU, C9orf123 / Fold change vs veh, C9orf123 / RFU, N4BP2L2 / Fold change vs veh, N4BP2L2 / RFU, ARFIP1 / Fold change vs veh, ARFIP1 / RFU, FAM179B / Fold change vs veh, FAM179B / RFU, BCL10 / Fold change vs veh, BCL10 / RFU, UHRF1BP1L / Fold change vs veh, UHRF1BP1L / RFU, BET1 / Fold change vs veh, BET1 / RFU, CNOT2 / Fold change vs veh, CNOT2 / RFU, ZNF268 / Fold change vs veh, ZNF268 / Fold change vs veh, ZNF507 / RFU, DGCR2 / Fold change vs veh, DGCR2 / RFU, WDSUB1 / Fold change vs veh, WDSUB1 / Fold change vs veh, HSP90B1 /// MIR3652 / RFU, ADSS / Fold change vs veh, ADSS / RFU, GK / Fold change vs veh, GK / RFU, ZNF148 / Fold change vs veh, ZNF148 / RFU, TAF9 / Fold change vs veh, TAF9 / RFU, SLC1A5 / Fold change vs veh, SLC1A5 / RFU, SLMO2 / Fold change vs veh, SLMO2 / RFU, ABCC4 / Fold change vs veh, ABCC4 / RFU, LOC101060439 /// RAP1B / Fold change vs veh, LOC101060439 /// RAP1B / RFU, RFX7 / Fold change vs veh, RFX7 / RFU, GTPBP10 / Fold change vs veh, GTPBP10 / RFU, CNEP1R1 / Fold change vs veh, CNEP1R1 / RFU, BIVM-ERCC5 /// ERCC5 / Fold change vs veh, BIVM-ERCC5 /// ERCC5 / RFU, ILF3 / Fold change vs veh, ILF3 / RFU 11762660_at / Fold change /veh 11762660_at / RFU VCAN (11757783_s_at) / Fold change /veh VCAN (11757783_s_at) / RFU DDX43 (11728927_at) / Fold change /veh DDX43 (11728927_at) / RFU KRT8 (11758188_x_at) / Fold change /veh KRT8 (11758188_x_at) / RFU NKD1 (11759106_at) / Fold change /veh NKD1 (11759106_at) / RFU SRD5A1 (11742802_a_at) / Fold change /veh SRD5A1 (11742802_a_at) / RFU TPSAB1 /// TPSB2 (11721975_s_at) / Fold change /veh TPSAB1 /// TPSB2 (11721975_s_at) / RFU GSTM3 (11746129_a_at) / Fold change /veh GSTM3 (11746129_a_at) / RFU IL23R (11737362_x_at) / Fold change /veh IL23R (11737362_x_at) / RFU TMEM51 (11727254_a_at) / Fold change /veh TMEM51 (11727254_a_at) / RFU PIWIL2 (11732686_x_at) / Fold change /veh PIWIL2 (11732686_x_at) / RFU ORM1 (11744905_x_at) / Fold change /veh ORM1 (11744905_x_at) / RFU CCDC152 (11743942_at) / Fold change /veh CCDC152 (11743942_at) / RFU ECM1 (11717891_a_at) / Fold change /veh ECM1 (11717891_a_at) / RFU IL23R (11748794_a_at) / Fold change /veh IL23R (11748794_a_at) / RFU TNFAIP8L3 (11732012_x_at) / Fold change /veh TNFAIP8L3 (11732012_x_at) / RFU MBOAT4 (11741988_at) / Fold change /veh MBOAT4 (11741988_at) / RFU 11764193_at / Fold change /veh 11764193_at / RFU TMEM53 (11763286_at) / Fold change /veh TMEM53 (11763286_at) / RFU MAGEB2 (11727129_at) / Fold change /veh MAGEB2 (11727129_at) / RFU TMEM200A (11744735_a_at) / Fold change /veh TMEM200A (11744735_a_at) / RFU CCDC152 (11751479_a_at) / Fold change /veh CCDC152 (11751479_a_at) / RFU FAM211A (11726209_a_at) / Fold change /veh FAM211A (11726209_a_at) / RFU RGS16 (11746705_a_at) / Fold change /veh RGS16 (11746705_a_at) / RFU VCAN (11755009_s_at) / Fold change /veh VCAN (11755009_s_at) / RFU RHOB (11743442_s_at) / Fold change /veh RHOB (11743442_s_at) / RFU RGS16 (11720943_a_at) / Fold change /veh RGS16 (11720943_a_at) / RFU RGS16 (11720944_at) / Fold change /veh RGS16 (11720944_at) / RFU, VPS4B / Fold change vs veh, VPS4B / RFU, CREB1 / Fold change vs veh, CREB1 / RFU, DNAJC13 / Fold change vs veh, DNAJC13 / RFU, GNAQ / Fold change vs veh, GNAQ / RFU, CDK5R1 / Fold change vs veh, CDK5R1 / RFU, ZRANB3 / Fold change vs veh, ZRANB3 / RFU, CUL4A / Fold change vs veh, CUL4A / RFU, CCNY / Fold change vs veh, CCNY / RFU, UFL1 / Fold change vs veh, UFL1 / RFU, COG3 / Fold change vs veh, COG3 / RFU, DIAPH2 / Fold change vs veh, DIAPH2 / RFU, SKA2 / Fold change vs veh, SKA2 / RFU, AFF3 / Fold change vs veh, AFF3 / RFU, LMF1 / Fold change vs veh, LMF1 / RFU, IPO11 / Fold change vs veh, IPO11 / RFU, DFFB / Fold change vs veh, DFFB / RFU, FOXP1 / Fold change vs veh, FOXP1 / RFU, CARD8 / Fold change vs veh, CARD8 / RFU, STRN3 / Fold change vs veh, STRN3 / RFU, ADK / Fold change vs veh, ADK / RFU, RASSF2 / Fold change vs veh, RASSF2 / RFU, WIPF1 / Fold change vs veh, WIPF1 / RFU, LARP1B / Fold change vs veh, LARP1B / RFU, RASA1 / Fold change vs veh, RASA1 / RFU, RB1 / Fold change vs veh, RB1 / RFU, PPFIA1 / Fold change vs veh, PPFIA1 / RFU, MAT2A / Fold change vs veh, MAT2A / RFU, CCT5 / Fold change vs veh, CCT5 / RFU, WDR92 / Fold change vs veh, WDR92 / RFU, CUX1 / Fold change vs veh, CUX1 / RFU, TTC7A / Fold change vs veh, TTC7A / RFU, TMEM135 / Fold change vs veh, TMEM135 / RFU, DEPTOR / Fold change vs veh, DEPTOR / RFU, CPM / Fold change vs veh, CPM / RFU, DNAJB6 / Fold change vs veh, DNAJB6 / RFU, CACNA2D3 / Fold change vs veh, CACNA2D3 / RFU, DTX4 / Fold change vs veh, DTX4 / RFU, TFCP2 / Fold change vs veh, TFCP2 / RFU, GMCL1 /// GMCL1P1 / Fold change vs veh, GMCL1 /// GMCL1P1 / RFU, AEBP2 / Fold change vs veh, AEBP2 / RFU, SNHG1 /// SNORD22 /// SNORD25 /// SNORD26 /// SNORD27 /// SNORD28 /// SNORD29 /// SNORD31 / Fold change vs veh, SNHG1 /// SNORD22 /// SNORD25 /// SNORD26 /// SNORD27 /// SNORD28 /// SNORD29 /// SNORD31 / Fold change (Aza/veh), C12orf56 (ProbeSet 11735607_a_at) / Fold change (ACY-1035/veh), C12orf56 (ProbeSet 11735607_a_at) / Fold change (Aza/veh), FGFR1OP (ProbeSet 11751329_s_at) / Fold change (ACY-1035/veh), FGFR1OP (ProbeSet 11751329_s_at) / Fold change (Aza/veh), VPS36 (ProbeSet 11739960_a_at) / Fold change (ACY-1035/veh), VPS36 (ProbeSet 11739960_a_at) / RFU SYPL1 (11715823_x_at) / Fold change /veh SYPL1 (11715823_x_at) / RFU IGFBP7 (11715501_s_at) / Fold change /veh IGFBP7 (11715501_s_at) / RFU REEP3 (11722064_at) / Fold change /veh REEP3 (11722064_at) / RFU IGLL1 (11728026_x_at) / Fold change /veh IGLL1 (11728026_x_at): dose or concentration left out as unconfirmed
# Conditions: MV-4-11 cells, 48 hours
compound,measurement,value
Nc1ccc(-c2cccs2)cc1NC(=O)c1ccc2c(c1)cc(C1CC1)n2CCN1CCOCC1 [ACY-1035],RFU PLEKHG5 (11743358_a_at),36.52 RFU
